Experimental data from ChEMBL document CHEMBL1146572, “Isolation and characterization of miscellaneous secondary metabolites of Deprea subtriflora” (J Nat Prod, 2003).

Columns and labels:
[1] = Chemoprevention index, ratio of IC50 for mouse Hepa-1c1c7 cells to CD for NADPH:quinone reductase specific activity in mouse Hepa-1c1c7 cells; format: functional
[2] = Growth inhibition of mouse Hepa-1c1c7 cells; format: cell-based

Work on `C[C@H]1CC([C@](C)(O)[C@@]2(O)CC[C@H]3[C@@H]4C[C@H]5O[C@]56[C@@H](O)C=CC(=O)[C@]6(C)[C@H]4CC[C@@]32C)OC(=O)[C@@H]1C` (stereo partly specified) [PHILADELPHICALACTONE A] yielded a Ratio [1] of 11.8 and an IC50 [2] of 0.47 µM.
`C[C@H]1C(=O)OC(C2O[C@]34C[C@H]5[C@@H](C[C@H]6O[C@H]7CC(=O)[C@@]5(C)[C@@]6(O)C7=O)[C@@H]5C[C@@H](O3)[C@@H]([C@@H]54)[C@@]2(C)O)[C@@H]1C` (stereo partly specified) [SUBTRIFLORALACTONE K] showed a Ratio [1] of 13.3 and an IC50 [2] of 4.8 µM.
With `C[S+]([O-])CCCCN=C=S` (stereo unspecified) [SULFORAPHANE] the Ratio [1] was 23.9 and the IC50 [2] was 11.7 µM.
